The pKi is −log10 of the Ki, conventionally taken in molar units. One may read the pEC50 as the negative decadic logarithm of the EC50, by convention in mol/L. High values mean a low EC50, low ones a high EC50. As a reminder, the pIC50 is the negative decadic logarithm of the IC50, by convention in mol/L. Read a high pIC50 as a small IC50.

pEC50, pIC50, pKi: −log10 of the molar value.

Assay [1] deals with T1, human GR (glucocorticoid receptor) (Homo sapiens, UniProt P04150).
T1 construct: expressed in transfected cells; host or cells: HEK293 (293-GR lysate)
T1 sequence (P04150 1-777): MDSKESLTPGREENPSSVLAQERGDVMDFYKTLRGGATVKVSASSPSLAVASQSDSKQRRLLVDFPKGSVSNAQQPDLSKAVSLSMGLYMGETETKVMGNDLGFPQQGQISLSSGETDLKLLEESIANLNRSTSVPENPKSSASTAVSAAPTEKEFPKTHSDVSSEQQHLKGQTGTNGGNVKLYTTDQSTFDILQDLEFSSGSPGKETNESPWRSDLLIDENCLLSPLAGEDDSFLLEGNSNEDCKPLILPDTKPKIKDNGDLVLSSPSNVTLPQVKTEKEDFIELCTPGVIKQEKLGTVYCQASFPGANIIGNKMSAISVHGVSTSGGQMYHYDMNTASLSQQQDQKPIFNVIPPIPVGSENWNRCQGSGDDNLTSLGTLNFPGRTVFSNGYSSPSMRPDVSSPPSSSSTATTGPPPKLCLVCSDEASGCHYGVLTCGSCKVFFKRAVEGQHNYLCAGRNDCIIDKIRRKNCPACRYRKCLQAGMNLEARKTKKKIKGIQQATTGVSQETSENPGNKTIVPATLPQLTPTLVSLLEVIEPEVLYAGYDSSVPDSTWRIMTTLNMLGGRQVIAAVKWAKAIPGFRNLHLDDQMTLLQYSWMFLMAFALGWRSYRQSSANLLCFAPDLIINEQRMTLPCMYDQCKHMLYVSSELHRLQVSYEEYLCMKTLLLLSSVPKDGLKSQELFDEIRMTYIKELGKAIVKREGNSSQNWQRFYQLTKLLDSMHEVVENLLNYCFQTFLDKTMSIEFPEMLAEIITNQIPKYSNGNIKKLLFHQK
In words: Steroid nuclear hormone receptor binding assay, GR. The conditions noted are these: [3H]-dexamethasone, HEK293 lysate overexpressing human GR. On the procedure: Cell lysates from human embryonic kidney HEK293 cells overexpressing human MR (mineralocorticoid receptor), GR (glucocorticoid receptor), AR (androgen receptor), or PR (progesterone receptor) are used for receptor-ligand competition binding assays to determine Ki values.
Briefly, steroid receptor competition binding assays are run in a buffer containing 20 mM HEPES buffer (pH=7.6), 0.2 mM EDTA, 75 mM NaCl, 1.5 mM MgCl2, 20% glycerol, 20 mM sodium molybdate, 0.2 mM DTT (dithiothreitol), 20 μg/mL aprotinin and 20 μg/mL leupeptin (assay buffer). Typically, steroid receptor binding assays include radio-labeled ligands, such as 0.25 nM [^3H]-aldosterone for MR binding, 0.7 nM [^3H]-dexamethasone for GR binding, 0.36 nM [^3H]-methyltrienolone for AR binding, and 0.29 nM [^3H]-methyltrienolone for PR binding, and either 20 μg 293-MR lysate, 20 μg 293-GR lysate, 22 μg 293-AR lysate, or 40 μg 293-PR lysate per well. Assays are typically run in 96-well format. Competing test compounds are added at various concentrations ranging from about 0.01 nM to 10 μM. Non-specific binding is determined in the presence of 500 nM aldosterone for MR binding, 500 nM dexamethasone for GR binding, or 500 nM methyltrienolone for AR and PR binding. […] After an incubation of 2 hours, plates are read in a Wallac Microbeta counter. […]

Assay [2] concerns the target T2, human glucocorticoid receptor (GR) (Homo sapiens, UniProt P04150).
T2 construct: expressed in transfected cells; host or cells: HEK293
T2 sequence (P04150 1-777): T1 sequence (P04150 1-777)
In words: Nuclear hormone receptor panel screen (luciferase reporter, HEK293), GR. Type of assay: cell-based. The source says:
Aldosterone exerts it physiological effects through interaction with the mineralocorticoid receptor. Following cytoplasmic binding of aldosterone to MR, the ligand receptor complex translocates to the cell nucleus where it binds to hormone response elements on DNA to initiate expression of target genes. […] The solvents, reagents, and ligands employed in the functional assay are readily available from commercial sources, or can be prepared by one of ordinary skill in the art.
Human embryonic kidney HEK293 cells are transfected with steroid hormone receptor and reporter gene plasmids using a suitable transfection reagent such as Fugene™. […] After 24 hours incubation with test compounds, cells are lysed and luciferase activity is determined using standard techniques.
Data are fitted to a four parameter-fit logistic curve to determine EC50 values. […] IC50 values are determined similarly using antagonist mode assay data. In the antagonist mode, percent inhibitions are determined by comparing test compound activity in the presence of low concentration of agonist (0.08 nM aldosterone for MR, 0.25 nM dexamethasone for GR, 0.66 nM of methyltrienolone for AR, and 0.08 nM of promegestone for PR) to the response produced by the same low concentration of agonist in the absence of test compound.
(A reporter such as luciferase makes a cellular process visible.)

Regarding `O=c1[nH]c2cc(/C=C3\c4ccccc4COc4cc(F)ccc43)ccc2n1[C@@H]1C[C@@H]2COCCN2C1` [Compound (I), 5-((E)-(3-fluorodibenzo[b,e]oxepin-11(6H)-ylidene)methyl)-1-((7R,8aR)-hexahydro-1H-pyrrolo[2,1-c][1,4]oxazin-7-yl)-1H-benzo[d]imidazol-2(3H)-one], in assay [1], the pKi is roughly 6.17. In assay [2] (agonist mode), this compound had a pEC50 of less than 5.00. Further, the pIC50 in assay [2] (antagonist mode, 0.25 nM dexamethasone) was less than 5.00.

Source of the values: patent US8658638B2, “Mineralocorticoid receptor antagonist and methods of use” (priority 2009, dated 2014).
